Laboratory results as given in ChEMBL document CHEMBL1201862, “PubChem BioAssay data set” (2004).
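Following 48 hours of exposure in 96-well plates, responses at five concentrations were used to interpolate endpoints linearly. GI50 = concentration required for 50% inhibition of growth.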 The source made the active and inactive calls. Cut-off read from the data, not from the text of the source: active = GI50 up to about 1.1 µM and inactive = higher.

Key:
Assay in all cases: NCI-60 cell line screen, 48 h
KM12 = system: KM12
RPMI-8226 = system: RPMI-8226
IGROV-1 = system: IGROV-1
TK-10 = system: TK-10
HT-29 = system: HT-29
UO-31 = system: UO-31
SK-MEL-5 = system: SK-MEL-5
SN12C = system: SN12C
HCC 2998 = system: HCC 2998
SK-MEL-28 = system: SK-MEL-28
SK-MEL-2 = system: SK-MEL-2
NCI-H23 = system: NCI-H23
ACHN = system: ACHN
SR = system: SR
OVCAR-4 = system: OVCAR-4
HOP-92 = system: HOP-92
DU-145 = system: DU-145
A498 = system: A498
HL-60 = system: HL-60
SF-539 = system: SF-539

SMILES	GI50 (KM12)	GI50 (RPMI-8226)	GI50 (IGROV-1)	GI50 (TK-10)	GI50 (HT-29)	GI50 (UO-31)	GI50 (SK-MEL-5)	GI50 (SN12C)	GI50 (HCC 2998)	GI50 (SK-MEL-28)	GI50 (SK-MEL-2)	GI50 (NCI-H23)	GI50 (ACHN)	GI50 (SR)	GI50 (OVCAR-4)	GI50 (HOP-92)	GI50 (DU-145)	GI50 (A498)	GI50 (HL-60)	GI50 (SF-539)
ClC(Cl)(Cl)C1=N[C@H]2[C@H](Br)[C@@H]3O[C@@H](c4ccccc4)[C@H](c4ccccc4)O[C@@H]3[C@H]2O1	20.1 µM (inactive)	16.2 µM (inactive)	15.3 µM (inactive)	20.4 µM (inactive)	20.5 µM (inactive)	20.7 µM (inactive)	17.3 µM (inactive)	20.1 µM (inactive)	15.2 µM (inactive)	20.3 µM (inactive)	16.2 µM (inactive)	21 µM (inactive)	17.3 µM (inactive)	21.1 µM (inactive)	18.7 µM (inactive)	16.5 µM (inactive)	26.5 µM (inactive)	17.2 µM (inactive)		
Cn1c2ccccc2n2c(=O)c(-c3ccc(Cl)cc3)nnc12	> 100 µM (inactive)		> 100 µM (inactive)	> 100 µM (inactive)	> 100 µM (inactive)	> 100 µM (inactive)	> 100 µM (inactive)	> 100 µM (inactive)	> 100 µM (inactive)	> 100 µM (inactive)	83.4 µM (inactive)	> 100 µM (inactive)	> 100 µM (inactive)	> 100 µM (inactive)	68.4 µM (inactive)	> 100 µM (inactive)	> 100 µM (inactive)	> 100 µM (inactive)	> 100 µM (inactive)	43.3 µM (inactive)
O=[As](O)(O)c1ccc2nc3cc([As](=O)(O)O)ccc3nc2c1	> 100 µM (inactive)		> 100 µM (inactive)	> 100 µM (inactive)	> 100 µM (inactive)	> 100 µM (inactive)	> 100 µM (inactive)	> 100 µM (inactive)	> 100 µM (inactive)	> 100 µM (inactive)	> 100 µM (inactive)	> 100 µM (inactive)	> 100 µM (inactive)	> 100 µM (inactive)	> 100 µM (inactive)	> 100 µM (inactive)	> 100 µM (inactive)	> 100 µM (inactive)		
Nc1ncnc2c1ncc(=O)n2C1CC(O)C(CO)O1 (centres undefined)	> 100 µM (inactive)	> 100 µM (inactive)	> 100 µM (inactive)	> 100 µM (inactive)	> 100 µM (inactive)	> 100 µM (inactive)	> 100 µM (inactive)	> 100 µM (inactive)	> 100 µM (inactive)	> 100 µM (inactive)	> 100 µM (inactive)	> 100 µM (inactive)	> 100 µM (inactive)	> 100 µM (inactive)	> 100 µM (inactive)	> 100 µM (inactive)	> 100 µM (inactive)	> 100 µM (inactive)		> 100 µM (inactive)
CC(=O)Nc1ccc2nncnc2c1	> 100 µM (inactive)	> 100 µM (inactive)	> 100 µM (inactive)	> 100 µM (inactive)	> 100 µM (inactive)	> 100 µM (inactive)	> 100 µM (inactive)	> 100 µM (inactive)		> 100 µM (inactive)	> 100 µM (inactive)	> 100 µM (inactive)	> 100 µM (inactive)	> 100 µM (inactive)	> 100 µM (inactive)		> 100 µM (inactive)	> 100 µM (inactive)	> 100 µM (inactive)	> 100 µM (inactive)
CCOC(=O)c1nc2cc(C(F)(F)F)ccc2nc1Nc1ccc(OC)c(OC)c1	> 100 µM (inactive)	> 100 µM (inactive)	> 100 µM (inactive)	> 100 µM (inactive)	> 100 µM (inactive)	> 100 µM (inactive)	> 100 µM (inactive)	> 100 µM (inactive)	> 100 µM (inactive)	> 100 µM (inactive)		> 100 µM (inactive)	> 100 µM (inactive)	> 100 µM (inactive)		> 100 µM (inactive)	> 100 µM (inactive)	> 100 µM (inactive)	> 100 µM (inactive)	> 100 µM (inactive)
NC(=O)CNC(=O)[C@@H]1C[C@@H](OCCC(=O)O)CN1C(=O)OCc1ccccc1	> 100 µM (inactive)	> 100 µM (inactive)	> 100 µM (inactive)	> 100 µM (inactive)	> 100 µM (inactive)	> 100 µM (inactive)	> 100 µM (inactive)	> 100 µM (inactive)		> 100 µM (inactive)	> 100 µM (inactive)	> 100 µM (inactive)	> 100 µM (inactive)	> 100 µM (inactive)	> 100 µM (inactive)		> 100 µM (inactive)	> 100 µM (inactive)	> 100 µM (inactive)	
C[C@]12CC[C@H]3[C@@H](CC=C4C[C@@H](N5CCCC5)CC[C@@]43C)[C@@H]1C[C@H](N1CCOCC1)[C@@H]2O	> 100 µM (inactive)	> 100 µM (inactive)	> 100 µM (inactive)	> 100 µM (inactive)	44.5 µM (inactive)	> 100 µM (inactive)	> 100 µM (inactive)	> 100 µM (inactive)	> 100 µM (inactive)	> 100 µM (inactive)		> 100 µM (inactive)	> 100 µM (inactive)	23.4 µM (inactive)	> 100 µM (inactive)	> 100 µM (inactive)	> 100 µM (inactive)	> 100 µM (inactive)	98.4 µM (inactive)	> 100 µM (inactive)
COc1cccc([C@H]2CC(=O)c3cc4c(cc3N2)OCO4)c1	0.317 µM (active)	0.579 µM (active)	0.622 µM (active)	0.979 µM (active)	0.194 µM (active)	0.485 µM (active)	0.216 µM (active)	0.394 µM (active)	0.434 µM (active)	4.82 µM (inactive)	0.578 µM (active)	0.451 µM (active)	0.847 µM (active)	0.318 µM (active)	20.6 µM (inactive)	19.1 µM (inactive)	0.397 µM (active)	0.75 µM (active)		0.274 µM (active)
NC(=O)c1nnc2cc(F)ccc2c1N	> 100 µM (inactive)	> 100 µM (inactive)	> 100 µM (inactive)	76.2 µM (inactive)	> 100 µM (inactive)	67.3 µM (inactive)	> 100 µM (inactive)	> 100 µM (inactive)	> 100 µM (inactive)		> 100 µM (inactive)	> 100 µM (inactive)	80.4 µM (inactive)	> 100 µM (inactive)	> 100 µM (inactive)		> 100 µM (inactive)	91.6 µM (inactive)	> 100 µM (inactive)	> 100 µM (inactive)
CC(C)(Cc1ccccc1)Cc1cc(O)ccc1O	15 µM (inactive)		26.9 µM (inactive)	36.2 µM (inactive)	20.6 µM (inactive)	13.4 µM (inactive)		16.7 µM (inactive)	20 µM (inactive)	21.8 µM (inactive)		14.6 µM (inactive)	20.8 µM (inactive)	4.63 µM (inactive)	16.4 µM (inactive)	14.4 µM (inactive)	23.1 µM (inactive)	22 µM (inactive)	2.22 µM (inactive)	13 µM (inactive)
O=c1cc(NNc2cccc(F)c2)[nH]c(=S)[nH]1	96.8 µM (inactive)	42.4 µM (inactive)	> 100 µM (inactive)	> 100 µM (inactive)	> 100 µM (inactive)	> 100 µM (inactive)	> 100 µM (inactive)	> 100 µM (inactive)	63.4 µM (inactive)	> 100 µM (inactive)			> 100 µM (inactive)	> 100 µM (inactive)	> 100 µM (inactive)	19.2 µM (inactive)	> 100 µM (inactive)	> 100 µM (inactive)	71.9 µM (inactive)	> 100 µM (inactive)
CCCCCC/C=C\CCCCCCCCCC1=C(CN2CCN(C)CC2)C(=O)C=C(OC)C1=O	6.47 µM (inactive)	2 µM (inactive)	5.93 µM (inactive)	2.92 µM (inactive)	7.28 µM (inactive)	3.03 µM (inactive)	6.75 µM (inactive)	4.37 µM (inactive)	7.6 µM (inactive)	13.6 µM (inactive)		4.57 µM (inactive)	3.28 µM (inactive)	0.0578 µM (active)	1.76 µM (inactive)	2.64 µM (inactive)	13.4 µM (inactive)	17.5 µM (inactive)	0.881 µM (active)	15.4 µM (inactive)
N#Cc1nnc2c3c(-c4ccc(Cl)cc4)c(C#N)c(O)nc3nn2c1N	11.9 µM (inactive)	8.05 µM (inactive)	2.61 µM (inactive)	22.6 µM (inactive)	5 µM (inactive)	6.25 µM (inactive)	6.71 µM (inactive)	2.38 µM (inactive)	3.14 µM (inactive)	11.9 µM (inactive)	9.84 µM (inactive)	5.81 µM (inactive)	8.11 µM (inactive)	2.14 µM (inactive)	14.9 µM (inactive)	5.2 µM (inactive)	3.88 µM (inactive)	2.77 µM (inactive)		2.88 µM (inactive)
O/N=C\c1c2c(cc3c1CCC3)CCC2	> 100 µM (inactive)	> 100 µM (inactive)	> 100 µM (inactive)	> 100 µM (inactive)	> 100 µM (inactive)	> 100 µM (inactive)	> 100 µM (inactive)	> 100 µM (inactive)	> 100 µM (inactive)	> 100 µM (inactive)	> 100 µM (inactive)	> 100 µM (inactive)	> 100 µM (inactive)	> 100 µM (inactive)	> 100 µM (inactive)		> 100 µM (inactive)	34.1 µM (inactive)	> 100 µM (inactive)	> 100 µM (inactive)
